Measured values from patent US20080267941A1, “Nutrition Comprising Betaine Against Muscle Wasting” (N. V. Nutricia, priority 2005, published 2008).
Counter-ions that a name gives are not always drawn.

System: muscles of normal healthy rats
Assay: Resting muscle glycogen levels in rats after 6 weeks of oral betaine supplementation
Type: in vivo, rat
Settings: for Resting glycogen levels in rats: male Wistar rats, 60 mg betaine in 1 ml vanilla custard orally each day for 6 weeks, *P < 0.05
Method: Experiments were performed on 8 male Wistar rats, 250-300 gram, which were housed individually, and had free access to water and food. All experimental procedures were approved by the Institutional Animal Care and Use Committee of the Netherlands, and complied with the principles of laboratory animal care. To determine the effect of oral betaine supplementation, the betaine group (n=4) received 1 ml vanilla custard each day in combination with 60 mg betaine (Sigma Aldrich), and the control group (n=4) received 1 ml vanilla custard. After 6 weeks of supplementation, the fast extensor digitorum longus, (EDL) and slow-(soleus) muscles were removed for further biochemical analysis and frozen in liquid nitrogen. Muscles were stored at −80° C. until analysis. Thereafter, muscles were freeze-dried during 3 days at −4° C. The freeze-dried muscles were crushed to powder, 400 μl 1M HCl was added to approximately 10 mg tissue and hydrolysed at 98° C. during 2 hours. After cooling down, 400 μl 1M NaOH was added to neutralize the samples and the samples were centrifuged 5 minutes at 13,000 rpm. Glycogen content was determined fluorimetrically by a glucose kit (Roche Diagnostics) and expressed as μmol glycosyl units·g^−1.

C[N+](C)(C)CC(=O)O [betaine, 1-carboxy-N,N,N-trimethylmethanaminium inner salt]
Resting glycogen levels in rats (EDL (fast extensor digitorum longus) muscle): 120 + 4* μmol glycosyl units/g tissue
Resting glycogen levels in rats (Soleus (slow) muscle): 137 ± 16* μmol glycosyl units/g tissue
glycogen content of the muscle cells (rats given vanilla custard containing betaine vs vanilla custard control): significantly increases
